Results as given in patent US20160176867A1, “MODIFIED BET-PROTEIN-INHIBITING DIHYDROQUINOXALINONES AND DIHYDROPYRIDOPYRAZINONES” (BAYER PHARMA AKTIENGESELLSCHAFT, priority 2013, published 2016).

Target: T1, BRD4 bromo domain 1 [BRD4(1)] (Homo sapiens, UniProt O60885)
T1 construct: N-terminally His6-tagged BRD4(1) (amino acids 67-152); made in house; host or cells: E. coli
Test: BRD4/acetylated peptide H4 binding assay (TR-FRET), BRD4 bromo domain 1
Settings: inhibition of BRD4(1)/Ac-H4 peptide interaction
Text: Protein-Protein Interaction Assay: BRD4/Acetylated Peptide H4 Binding Assay
To assess the BRD4(1) binding strength of the substances described in this application, the ability thereof to inhibit the interaction between BRD4(1) and acetylated histone H4 in a dose-dependent manner was quantified.
For this purpose, a time-resolved fluorescence resonance energy transfer (TR-FRET) assay was used, which measures the binding between N-terminally His6-tagged BRD4(1) (amino acids 67-152) and a synthetic acetylated histone H4 (Ac-H4) peptide with sequence GRGK(Ac)GGK(Ac)GLGK(Ac)GGAK(Ac)RHGSGSK-biotin. The recombinant BRD4(1) protein produced in-house according to Filippakopoulos et al., Nature, 2010, 468:1119-1123 and Cell, 2012, 149:214-231, was expressed in E. coli and purified by means of (Ni-NTA) affinity and (Sephadex G-75) size exclusion chromatography. The Ac-H4 peptide can be purchased, for example, from Biosyntan (Berlin, Germany).
In the assay, typically 11 different concentrations of each substance (0.1 nM, 0.33 nM, 1.1 nM, 3.8 nM, 13 nM, 44 nM, 0.15 μM, 0.51 μM, 1.7 μM, 5.9 μM and 20 μM) were analysed as duplicates on the same microtitre plate. For this purpose, 100-fold concentrated solutions in DMSO were prepared by serial dilutions (1:3.4) of a 2 mM stock solution into a clear, 384-well microtitre plate (Greiner Bio-One, Frickenhausen, Germany). From this, 50 nl were transferred into a black test plate (Greiner Bio-One, Frickenhausen, Germany). The test was started by the addition of 2 μl of a 2.5-fold concentrated BRD4(1) solution (final concentration typically 10 nM in the 5 μl of reaction volume) in aqueous assay buffer [50 mM HEPES pH 7.5, 50 mM sodium chloride (NaCl), 0.25 mM CHAPS and 0.05% serum albumin (BSA)] to the substances in the test plate. This was followed by a 10-minute incubation step at 22° C. for the pre-equilibration of putative complexes between BRD4(1) and the substances.
The mixture was then incubated in the dark at 22° C. for one hour and then at 4° C. for at least 3 hours and for no longer than overnight. The formation of BRD4(1)/Ac-H4 complexes was determined by the measurement of the resonance energy transfer from the streptavidin-Eu cryptate to the anti-6His-XL665 antibody present in the reaction. For this purpose, the fluorescence emission was measured at 620 nm and 665 nm after excitation at 330-350 nm in a TR-FRET measuring instrument, for example a Rubystar or Pherastar (both from BMG Lab Technologies, Offenburg, Germany) or a Viewlux (Perkin-Elmer). The ratio of the emissions at 665 nm and at 622 nm was taken as an indicator of the amount of BRD4(1)/Ac-H4 complexes formed.
The data (ratios) obtained were normalized, with 0% inhibition corresponding to the mean from the measurements for a set of controls (typically 32 data points) in which all the reagents were present. In these, in place of test substances, 50 nl of DMSO (100%) were used. Inhibition of 100% corresponded to the mean from the measurements for a set of controls (typically 32 data points) in which all the reagents except BRD4(1) were present. The IC50 was determined by regression analysis based on a 4-parameter equation (minimum, maximum, IC50, Hill; Y=max+(min−max)/(1+(X/IC50)Hill)).

| IC50 | Compound |
| --- | --- |
| 36 nM | CC(C)NS(=O)(=O)c1cccc(Nc2ccc3c(n2)N(C2CCOCC2)[C@H](C)C(=O)N3C)c1 [Example 42, 3-{[(3R)-1,3-dimethyl-2-oxo-4-(tetrahydro-2H-pyran-4-yl)-1,2,3,4-tetrahydropyrido[2,3-b]pyrazin-6-yl]amino}-N-isopropylbenzene-sulphonamide] |
| 351 nM | COc1ccc(C(=O)N[C@H]2CC[C@H](N3CCN(CC4CC4)CC3)CC2)cc1Nc1ccc2c(n1)N(C1CCOCC1)[C@H](C)C(=O)N2C [Example 87, N-{trans-4-[4-(cyclo-propylmethyl)piperazin-1-yl]cyclohexyl}-3-{[(3R)-1,3-dimethyl-2-oxo-4-(tetrahydro-2H-pyran-4-yl)-1,2,3,4-tetrahydropyrido[2,3-b]pyrazin-6-yl]amino}-4-methoxybenzamide] |
| 40 nM | C[C@@H]1C(=O)N(C)c2ccc(Nc3cccc(S(=O)(=O)N4CC(F)(F)C4)c3)nc2N1C1CCOCC1 [Example 31, (3R)-6-({3-[(3,3-Difluoroazetidin-1-yl)sulphonyl]phenyl}amino)-1,3-dimethyl-4-(tetrahydro-2H-pyran-4-yl)-3,4-dihydropyrido[2,3-b]pyrazin-2(1H)-one] |
| 149 nM | COc1ccc(C(=O)N[C@H]2CC[C@H](N3CCN(CC4CC4)CC3)CC2)cc1Nc1ccc2c(n1)N(C1CCOCC1)[C@H](C)C(=O)N2C [Example 18, N-{trans-4-[4-(Cyclopropylmethyl)piperazin-1-yl]cyclohexyl}-3-{[(3R)-1,3-dimethyl-2-oxo-4-(tetrahydro-2H-pyran-4-yl)-1,2,3,4-tetrahydropyrido[2,3-b]pyrazin-6-yl]amino}-4-methoxybenzamide] |
